We go through two compounds from patent US20240180093A1, “GENETIC MARKERS AND SOYBEAN PLANTS WITH INCREASED TOLERANCE TO DICAMBA” (THE CURATORS OF THE UNIVERSITY OF MISSOURI, priority 2022, published 2024).

Each structure is given as a SMILES string. Read-outs that look alike come from different tables or passages of the source.

The test system of series [1] is soybean accessions. The note with it: for Mean off-target dicamba damage score: 1 to 5 scale. An excerpt:
A total of 382 genetically diverse soybean accessions with maturity groups (MG) ranging from MG 3 to 5 were used in this study. These comprise a subset of the USDA Soybean Germplasm Collection and originated from […], including Algeria (2), China (226), Costa Rica (1), Georgia (2), Indonesia (1), Japan (38), Nepal (1), North Korea (20), Russia (5), South Africa (1), South Korea (32), Taiwan (3), United States (40), and Vietnam (5). Five accessions have unknown origins. The USDA Soybean Germplasm Collection was genotyped with the SoySNP50K BeadChip.
Field trials were conducted in three environments for two years (2020-2021) using a two-replicate randomized complete block design in Portageville, MO (36°23′44.2″N lat; 89°36′52.3″W long) and Clarkton, MO (36°29′14.8″N lat; 89°57′39.0″W long). Each plot consisted of a single 2.13 m long row spaced 0.76 m apart.
Each year, genotypes were visually assessed for off-target dicamba damage once in the early reproductive stage between R1 to R3 (approximately […]). Lines were rated on a 1 to 5 scale with 0.5 increments.
Adjusted means across environments were calculated using the function ‘ls_means’ of the R package ‘lmerTest’ (available at https://www.r-project.org/) based on a mixed-effects linear model conducted with the package ‘lme4’. The model included the fixed effect of genotype, the random interaction between genotype and environment (G×E), the random effect of environment, and the nested random effect of replication within the environment. To measure the consistency and inter-relatedness of the damage ratings across environments, Cronbach's alpha (α) score was calculated each year using the R package ‘psych’ (Revelle, 2021) based on Eq. 1.

The conditions of series [2]: cited from earlier work.

In the case of `COc1c(Cl)ccc(Cl)c1C(=O)O` [dicamba, 3,6-dichloro-2-methoxybenzoic acid], the “Mean off-target dicamba damage score” value is 2.70 in series [1] (environment 2020-Clarkton); 2.80 in series [1] (environment 2021-Clarkton); 2.60 in series [1] (environment 2021-LeeFarm); 2.70 in series [1] (overall, three environments 2020-2021, 382 accessions). For the same compound, the average damage is 3.5 in series [1] (accession PI 88788); 1.5 in series [1] (accession PI 342434 (Japan)); 1.2 in series [1] (accession PI 424005 (South Korea)); 1.3 in series [1] (accession PI 424038-B (South Korea)); 4.1 in series [1] (accession PI 547862 (L83-570, United States)); 4.2 in series [1] (accession PI 552538 (Dunbar, United States)). Further, the average damage in series [1] (accession PI 561701 (G88-20092, United States)) was 1.4; in series [1] (accession PI 597387 (Pana, United States)), 4.5; in series [1] (accession PI 598124 (Maverick, United States)), 4.3; in series [1] (accession PI 603497 (China)), 1.4; in series [1] (accession PI 603675 (China)), 4.5; in series [1] (accessions derived from Asia), 2.6. Also, the average damage is given as 3.0 in series [1] (accessions derived from the Americas); 2.7 in series [1] (accessions from China); 3.1 in series [1] (accessions from Costa Rica); 2.6 in series [1] (accessions from Japan); 2.5 in series [1] (accessions from South Korea); 2.3 in series [1] (accessions from the United States). In addition, the average damage is recorded as 2.8 in series [1] (accessions of maturity group MG 3), 2.7 in series [1] (accessions of maturity group MG 4) and 2.5 in series [1] (accessions of maturity group MG 5). The “mean score of dicamba damage” value in series [1] (genotypes carrying all three favorable alleles (ss715605561, ss715635349, ss715632413)) is 1.58; in series [1] (genotypes carrying all three unfavorable alleles (ss715605561, ss715635349, ss715632413)), 2.90.

Regarding `O=C(O)CNCP(=O)(O)O` [glyphosate, N-(phosphonomethyl)glycine], the water solubility result in series [2] is “high water solubility”.
